Test results: patent US20230055237A1, “COMPOUNDS AND METHODS FOR THE TREATMENT OF CYSTIC FIBROSIS” (Flatley Discovery Lab, LLC, priority 2019, published 2023)

Target: T1, CFTR (Homo sapiens, UniProt P13569, DEL508-508)
T1 construct: Primary CF airway epithelial cells were obtained from the UNC Cystic Fibrosis Tissue Procurement and Cell Culture Core; host or cells: primary CF airway epithelial cells, differentiated at the air-liquid interface
Assay: Equivalent current assay in primary CF airway epithelial cells (NAUC, combination with 1st site corrector FDL169 or VX-809)
Assay type: cell-based
Details: 37° C., 24 h

[1] = test compound 1 μM in combination with 1st site corrector VX-809 (3 μM)
[2] = test compound 3 μM in combination with 1st site corrector VX-809 (3 μM)
[3] = test compound 10 μM in combination with 1st site corrector VX-809 (3 μM)
[4] = test compound 1 μM in combination with 1st site corrector FDL169 (3 μM)
[5] = test compound 3 μM in combination with 1st site corrector FDL169 (3 μM)
[6] = test compound 10 μM in combination with 1st site corrector FDL169 (3 μM)

T1 sequence (P13569 with tags, fused parts or gaps DEL508-508): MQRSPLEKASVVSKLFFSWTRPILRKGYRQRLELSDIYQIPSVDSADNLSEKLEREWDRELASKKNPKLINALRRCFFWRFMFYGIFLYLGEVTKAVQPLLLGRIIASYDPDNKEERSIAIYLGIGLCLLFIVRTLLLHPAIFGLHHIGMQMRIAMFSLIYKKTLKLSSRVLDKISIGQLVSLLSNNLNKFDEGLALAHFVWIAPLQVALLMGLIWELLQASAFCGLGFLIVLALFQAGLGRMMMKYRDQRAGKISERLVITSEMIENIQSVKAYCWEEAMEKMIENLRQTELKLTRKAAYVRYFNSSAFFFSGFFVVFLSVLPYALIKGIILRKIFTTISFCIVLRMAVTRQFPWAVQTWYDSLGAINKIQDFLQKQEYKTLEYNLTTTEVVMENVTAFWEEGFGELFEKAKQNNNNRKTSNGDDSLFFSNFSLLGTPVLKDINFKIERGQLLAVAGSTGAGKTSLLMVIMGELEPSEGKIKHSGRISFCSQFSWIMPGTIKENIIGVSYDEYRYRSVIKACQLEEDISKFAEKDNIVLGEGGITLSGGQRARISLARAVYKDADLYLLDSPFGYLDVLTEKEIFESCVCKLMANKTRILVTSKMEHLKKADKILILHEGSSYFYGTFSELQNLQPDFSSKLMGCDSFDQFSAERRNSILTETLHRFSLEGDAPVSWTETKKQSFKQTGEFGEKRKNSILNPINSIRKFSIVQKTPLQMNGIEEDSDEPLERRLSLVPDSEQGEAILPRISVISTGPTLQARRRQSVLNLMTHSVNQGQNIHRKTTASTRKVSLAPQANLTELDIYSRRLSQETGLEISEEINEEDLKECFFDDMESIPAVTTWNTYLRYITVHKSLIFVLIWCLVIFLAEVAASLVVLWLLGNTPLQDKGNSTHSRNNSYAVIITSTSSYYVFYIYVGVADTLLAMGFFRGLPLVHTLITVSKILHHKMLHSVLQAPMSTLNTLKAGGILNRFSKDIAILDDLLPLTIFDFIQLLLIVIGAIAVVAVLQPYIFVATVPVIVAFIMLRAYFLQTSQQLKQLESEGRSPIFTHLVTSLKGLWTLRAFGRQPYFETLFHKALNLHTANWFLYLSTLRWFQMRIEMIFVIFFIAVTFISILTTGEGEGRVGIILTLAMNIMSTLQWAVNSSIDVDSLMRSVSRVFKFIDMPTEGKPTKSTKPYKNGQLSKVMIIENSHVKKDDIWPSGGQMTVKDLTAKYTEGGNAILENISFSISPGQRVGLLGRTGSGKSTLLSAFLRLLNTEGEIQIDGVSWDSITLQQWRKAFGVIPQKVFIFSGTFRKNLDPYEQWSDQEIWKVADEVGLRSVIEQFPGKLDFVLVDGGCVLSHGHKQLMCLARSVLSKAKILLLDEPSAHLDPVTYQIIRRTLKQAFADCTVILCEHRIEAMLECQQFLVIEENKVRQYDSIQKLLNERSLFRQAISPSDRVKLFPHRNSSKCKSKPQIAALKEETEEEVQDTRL

Structure (SMILES) | Nauc @ 1 μM [1] | Nauc @ 3 μM [2] | Nauc @ 10 μM [3] | Nauc @ 1 μM [4] | Nauc @ 3 μM [5] | Nauc @ 10 μM [6]
CN(O)C(=O)[C@@H]1[C@@H](C(=O)N(C)c2cc(Cl)cc(Cl)c2)[C@H]2CC(F)(F)CN2[C@]12C(=O)Nc1c(Cl)cc(Cl)cc12 [Example 260b, (1′R,2′R,3R,7a′R)-5,7-dichloro-N1′-(3,5-dichlorophenyl)-6′,6′-difluoro-N2′-hydroxy-N1′,N2′-dimethyl-2-oxo-1′,2′,5′,6′,7′,7a′-hexahydrospiro[indoline-3,3′-pyrrolizine]-1′,2′-dicarboxamide] | + (NAUC “+” refers to an observed NAUC <140% of positive control) | + (NAUC “+” refers to an observed NAUC <140% of positive control) | + (NAUC “+” refers to an observed NAUC <140% of positive control) |  |  | 
CC(C)(C)CN(C(=O)[C@H]1[C@H]2CCCN2C2(C(=O)Nc3c(Cl)cc(Cl)cc32)[C@H]1C(=O)O)c1cc(Cl)cc(Cl)c1 (single isomer, unassigned) [Example 82.6b, (1′S,2′R,7a′S)-5,7-dichloro-1-((3,5-dichlorophenyl)(neopentyl)carbamoyl)-2-oxo-1′,2′,5′,6′,7′,7a′-hexahydrospiro[indoline-3,3′-pyrrolizine]-2′-carboxylic acid] |  |  |  | ++ (NAUC “++” refers to an observed NAUC 170-140% of positive control) | + (NAUC “+” refers to an observed NAUC <140% of positive control) | 
CC1(C)CC2C(C(=O)Nc3cc(Cl)c(OC(F)F)c(Cl)c3)C(C(=O)O)C3(C(=O)Nc4c(Cl)cc(Cl)cc43)N2C1 (stereo not shown) [Example 8, 5,7-dichloro-1′-((3,5-dichloro-4-(difluoromethoxy)phenyl)carbamoyl)-6′,6′-dimethyl-2-oxo-1′,2′,5′,6′,7′,7a′-hexahydrospiro[indoline-3,3′-pyrrolizine]-2′-carboxylic acid] |  | +++ (NAUC “+++” refers to an observed NAUC>170% of positive control) | +++ (NAUC “+++” refers to an observed NAUC>170% of positive control) |  |  | 
CC(C)(C)c1cccc(CCNC(=O)C2C3CC(F)(F)CN3C3(C(=O)Nc4c(Cl)cc(Cl)cc43)C2C(=O)O)c1 (racemic) [Example 44, (1′R,2′S,3R,7a′R)-1′-((3-(tert-butyl)phenethyl)carbamoyl)-5,7-dichloro-6′,6′-difluoro-2-oxo-1′,2′,5′,6′,7′,7a′-hexahydrospiro[indoline-3,3′-pyrrolizine]-2′-carboxylic acid] |  | +++ (NAUC “+++” refers to an observed NAUC>170% of positive control) | +++ (NAUC “+++” refers to an observed NAUC>170% of positive control) |  |  | 
Cc1ccc(C(F)(F)C2NC3(C(=O)Nc4c(Cl)cc(Cl)cc43)C(C(=O)O)C2C(=O)Nc2cc(Cl)cc(Cl)c2)cc1 (stereo not shown) [Example 71.a] |  |  | +++ (NAUC “+++” refers to an observed NAUC>170% of positive control) |  |  | 
CC(C)(C)CN(C(=O)[C@H]1[C@@H](C(=O)O)[C@]2(C(=O)Nc3c(Cl)cc(Cl)cc32)N2CC3(CC3)C[C@@H]12)c1cc(Cl)cc(Cl)c1 (single isomer, unassigned) [Example 275.7b] |  |  |  | +++ (NAUC “+++” refers to an observed NAUC>170% of positive control) | +++ (NAUC “+++” refers to an observed NAUC>170% of positive control) | ++ (NAUC “++” refers to an observed NAUC 170-140% of positive control)
O=C(NCCc1cccc(Cl)c1)C1C2CC(F)(F)CN2C2(C(=O)Nc3c(Cl)cc(Cl)cc32)C1C(=O)O (stereo not shown) [Example 51] |  | +++ (NAUC “+++” refers to an observed NAUC>170% of positive control) | +++ (NAUC “+++” refers to an observed NAUC>170% of positive control) |  |  | 
COc1cc(C(F)(F)F)cc(NC(=O)C2C3CC(F)(F)CN3C3(C(=O)Nc4c(Cl)cc(Cl)cc43)C2C(=O)O)n1 (single isomer, unassigned) [Example 80.7b.2, 5,7-dichloro-6′,6′-difluoro-1′-((6-methoxy-4-(trifluoromethyl)pyridin-2-yl)carbamoyl)-2-oxo-1′,2′,5′,6′,7′,7a′-hexahydrospiro[indoline-3,3′-pyrrolizine]-2′-carboxylic acid] |  |  | + (NAUC “+” refers to an observed NAUC <140% of positive control) |  |  | 
O=C(Nc1ccc2ncccc2c1)[C@H]1[C@H]2CC(F)(F)CN2[C@]2(C(=O)Nc3c(Cl)cc(Cl)cc32)[C@H]1C(=O)O [Example 120] | + (NAUC “+” refers to an observed NAUC <140% of positive control) | + (NAUC “+” refers to an observed NAUC <140% of positive control) | + (NAUC “+” refers to an observed NAUC <140% of positive control) |  |  | 
C[C@]1(O)C[C@@H]2[C@H](C(=O)Nc3cc(Cl)cc(Cl)c3)[C@H](C(N)=O)[C@@]3(C(=O)Nc4c(Cl)cc(Cl)cc43)N2C1 [Example 244, (1′R,2′S,6′S,7a′R)-5,7-dichloro-N1′-(3,5-dichlorophenyl)-6′-hydroxy-6′-methyl-2-oxo-1′,2′,5′,6′,7′,7a′-hexahydrospiro[indoline-3,3′-pyrrolizine]-1,2′-dicarboxamide] | + (NAUC “+” refers to an observed NAUC <140% of positive control) | + (NAUC “+” refers to an observed NAUC <140% of positive control) | + (NAUC “+” refers to an observed NAUC <140% of positive control) |  |  | 
CN(C(=O)C1C2CC(F)(F)CN2C2(C(=O)Nc3c(Cl)cc(Cl)cc32)C1C(=O)O)c1cc(C(F)(F)F)cc(C(F)(F)F)n1 (single isomer, unassigned) [Example 273b, 1′-((4,6-bis(trifluoromethyl)pyridin-2-yl)(methyl)carbamoyl)-5,7-dichloro-6′,6′-difluoro-2-oxo-1′,2′,5′,6′,7′,7a′-hexahydrospiro[indoline-3,3′-pyrrolizine]-2′-carboxylic acid] |  |  |  | + (NAUC “+” refers to an observed NAUC <140% of positive control) | ++ (NAUC “++” refers to an observed NAUC 170-140% of positive control) | 
CN(C(=O)[C@H]1[C@H]2CCCCN2[C@]2(C(=O)Nc3c(Cl)cc(Cl)cc32)[C@H]1C(=O)O)c1cc(Cl)cc(Cl)c1 (racemic) [Example 219, rac-(1′R,2′S,3R,8a′R)-5,7-dichloro-1′-((3,5-dichlorophenyl)(methyl)carbamoyl)-2-oxo-1′,5′,6′,7′,8′,8a′-hexahydro-2′H-spiro[indoline-3,3′-indolizine]-2′-carboxylic acid] |  |  |  | ++ (NAUC “++” refers to an observed NAUC 170-140% of positive control) | + (NAUC “+” refers to an observed NAUC <140% of positive control) | 
O=C(Nc1cc(Cl)cc(Cl)c1)C1C(C(F)(F)c2ccc(C(F)(F)F)cc2)NC2(C(=O)Nc3c(Cl)cc(Cl)cc32)C1C(=O)O (stereo not shown) [Example 73.a] |  |  | + (NAUC “+” refers to an observed NAUC <140% of positive control) |  |  | 
O=C(Nc1cc(Cl)cc(Cl)c1)[C@H]1[C@H]2CCCN2[C@]2(C(=O)Nc3c(Cl)cc(Cl)cc32)[C@H]1C(=O)NN1CCOCC1 (relative stereo) [Example 243, (1′R,2′S,7a′R)-5,7-dichloro-N1′-(3,5-dichlorophenyl)-N2′-morpholino-2-oxo-1′,2′,5′,6′,7′,7a′-hexahydrospiro dicarboxamide] | + (NAUC “+” refers to an observed NAUC <140% of positive control) | + (NAUC “+” refers to an observed NAUC <140% of positive control) |  |  |  | 
O=C(Nc1cccc2nccnc12)[C@H]1[C@H]2CC(F)(F)CN2[C@]2(C(=O)Nc3c(Cl)cc(Cl)cc32)[C@H]1C(=O)O [Example 126] | ++ (NAUC “++” refers to an observed NAUC 170-140% of positive control) | ++ (NAUC “++” refers to an observed NAUC 170-140% of positive control) |  |  |  | 
CC(C)CN(C(=O)[C@H]1[C@H]2CC(F)(F)CN2[C@]2(C(=O)Nc3c(Cl)cc(Cl)cc32)[C@H]1C(=O)O)c1cc(Cl)cc(Cl)c1 [Example 151] |  |  |  | +++ (NAUC “+++” refers to an observed NAUC>170% of positive control) | +++ (NAUC “+++” refers to an observed NAUC>170% of positive control) | ++ (NAUC “++” refers to an observed NAUC 170-140% of positive control)
